Data published in publication PMC4301629 (PLoS ONE, 2015).

Columns and labels:
α1A-AR [1] = biological target: T1, α1A-AR (Homo sapiens, UniProt P35348); test: LC-MS detection of IP1, IP2 and IP3 in α1A-AR transduced HEK-293/EBNA cells; format: cell-based; set-up: expressed in transfected cells; host or cells: HEK-293/EBNA (baculovirus transduction, NaBu induction); settings: Iso up to 10 mM
T1 sequence (P35348 1-466): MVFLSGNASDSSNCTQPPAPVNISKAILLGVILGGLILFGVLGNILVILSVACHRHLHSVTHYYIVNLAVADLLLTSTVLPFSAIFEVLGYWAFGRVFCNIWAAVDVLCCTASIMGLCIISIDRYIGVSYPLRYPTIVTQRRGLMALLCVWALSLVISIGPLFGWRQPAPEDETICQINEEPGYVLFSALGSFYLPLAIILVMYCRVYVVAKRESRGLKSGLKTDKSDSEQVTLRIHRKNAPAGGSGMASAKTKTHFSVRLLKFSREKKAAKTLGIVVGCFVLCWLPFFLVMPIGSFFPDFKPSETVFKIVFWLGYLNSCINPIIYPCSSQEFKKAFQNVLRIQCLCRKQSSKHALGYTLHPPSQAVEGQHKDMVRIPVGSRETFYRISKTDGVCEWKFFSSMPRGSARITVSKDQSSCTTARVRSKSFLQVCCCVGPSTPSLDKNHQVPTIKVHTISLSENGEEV
Method: Virally transduced HEK-293/EBNA cells were resuspended in growth medium and seeded in poly-D-lysine coated 96-well black plates at a density of 100,000 cells/0.1 mL per well, Cells were allowed to attach for 2 hours at 37°C in a humidified atmosphere of 95% air and 5% CO2. After that, the medium was replaced with agonist solution in assay buffer (20 mM HEPES, 10 mM glucose, 1.8 mM CaCl2, 0.5 mM MgSO4, in HBSS 1X buffer, 50 mM LiCl) and cells were incubated at 37°C for 30 min. Stimulation was stopped by exchange of assay buffer with lysis buffer (100 μL 0.1N HCl/MeOH), and lysis proceeded for 30 min at 4°C. Cellular levels of inositol phosphates were determined using a Thermo LC-MS detection system following a published protocol. Chromatography was performed employing a BioBasic column AX (50 × 2.1 mm, Thermo). The mobile phase consisted of solvent A: 10 mM ammonium acetate, pH 6 in 30/70 acetonitrile/water, and solvent B: 1 mM ammonium acetate, pH 11 in 30/70 acetonitrile/water. A gradient solvent system was used starting with 0% solvent B, and analytes were eluted by increasing solvent B to 100% over 3 min. Each data point represents the average of triplicate determinations and each experiment was performed at least three times independently.

α1A-AR [2] = biological target: T1, α1A-AR; test: IP accumulation in α1A-AR_CHO stable cells; format: cell-based; set-up: expressed in transfected cells; settings: Iso up to 1 mM
Method: After 10–20 minutes, 10 μL of agonist was added followed by incubation for 5 to 30 minutes. Stimulation was stopped by addition of lysis buffer. Second messenger levels were determined using a homogeneous immunoassay method with time-resolved FRET detection (IP-One HTRF, Cisbio International) according to protocols provided by the supplier. Sample fluorescence was measured with a Nanoscan plate reader (IOM, Berlin). Each data point represents the average of quadruplicate determinations and each experiment was performed at least two times independently.
IP1, IP2, and IP3 levels were determined via LC-MS. Plots are representative of three independent experiments with each data point being the average of triplicates.

β3-AR = settings: in presence of GTP; cited from earlier work
α1A-AR [3] = test: Ca2+ transient response (FLIPR, fluo3) in α1A-AR transduced HEK-293/EBNA cells; format: cell-based; settings: 100 μM Iso, α1A-AR_HEK-293/EBNA
Method: Prior to experiments, cells were transduced with baculovirus strains designed for transient expression of α1A-AR or aldehyde oxidase (negative control). This was performed by incubating cells with virus (MOI 100–150) for 3 to 4 h, followed by exchange into fresh serum free growth medium supplemented with 4 mM sodium butyrate (NaBu). Cells were grown for another 14 to 18 h and then examined for agonist-evoked responses in transient Ca^2+ release, IP accumulation or pERK activation assays. The surface receptor expression density was determined by flow cytometry via immunofluorescence labeling of an N-terminal HA epitope tag on the receptor and radioligand binding in partially purified membranes.
Cells were resuspended in Hank’s balanced salt solution (Invitrogen) supplemented with 2 mM CaCl2, 10 mM HEPES pH 7.4, 2.5 mM probenecid, plus 1g/L each of glucose and bovine serum albumin (BSA), and seeded in poly-D-lysine coated 96-well black plates with transparent bottom (Costar) at a density of 50,000 cells/0.1 mL per well. Cells were then incubated for 1 h at 37°C with an additional 0.1 mL of buffer containing 4 μM fluo3-AM that was diluted from a stock solution containing 1 mM fluo3-AM dye in DMSO with 10% pluronic acid. After dye loading incubation, plates were washed twice with 100 μL of buffer and refilled with 100 μL of assay buffer. In experiments testing the effect of antagonists, 25 μL of buffer from wells of washed cells were replaced with 25 μL of vehicle or 4× antagonist solution. Pre-incubation of ligand with dye-loaded cells proceeded for 5–30 minutes immediately prior to measurements of agonist-evoked responses. Agonist-evoked Ca^2+ mobilization responses of cell populations were monitored at room temperature simultaneously in all wells of the assay plate using the plate-imaging fluorometric reader FLIPR (MDS Analytical Technologies, Sunnyvale, CA). […] The amplitudes of Ca^2+ transient responses are reported as ΔF/F0, or fold-change in Ca^2+ dye fluorescence relative to the baseline signal ΔF/F0 = (F-F0)/F0 +1 (where ΔF is maximal fluorescence intensity observed following agonist application, F0 = baseline fluorescence, or average intensity measured over the 10 s interval prior to agonist application). Image acquisition rates were varied from 1 Hz during the first 100 s of measurements to 0.5 Hz for the remaining time of the recording.
Graphs shown reflect either pooled or representative data (see figure legends). For concentration-response analysis, results from Ca^2+ mobilization experiments were plotted as ΔF/F0 vs. agonist concentration and fit to a sigmoidal concentration-response equation using the GraphPad Prism software package. In cases where biphasic concentration-response curves were observed data were fit to a two-site concentration-response model: F(X)=R0+(Rmax−R0)[Fr1/(1+10^X-logEC50,1)+(1−Fr1)/(1+10^X-logEC50,2)] (1) , where X is the logarithm of the agonist concentration, R0 and Rmax are respectively the response minimum and maximum; Fr1 is the response fraction attributable to receptor characterized by half effective concentration of the first response phase (EC50,1), with the reminder response attributable to the second half effective concentration (EC50,2). For radioligand binding experiments, B max values were calculated from maximum binding using the equation B max = (SB × ([…] + [L])/[L]), where SB is the specific binding expressed as fmol per mg of membrane protein, and [L] is the ligand concentration.

HEK293/EBNA cells = test: IP accumulation (IP-One HTRF) in untransduced HEK-293/EBNA cells; format: cell-based

## CC(C)NCC(O)c1ccc(O)c(O)c1 (stereo not shown) [Iso, isoproterenol]
α1A-AR [1]
  cellular levels of inositol phosphates IP1, IP2 and IP3: no significant changes
α1A-AR [2]
  IP accumulation: no IP accumulation could be detected
β3-AR
  Ki: 1600 nM
α1A-AR [3]
  decline from peak amplitude within 100 sec: > 75%
  delay from addition of agonist to the rise in Ca2+: 5 to 10 s
HEK293/EBNA cells; HEK293/EBNA untransduced
  EC50 IP: BQL
HEK293/EBNA cells; untransduced cells, data not shown
  IP formation: not detectable
